Measured values as given in patent US20250313533A1, “QUINOLINE CARBOXYLIC ACID ESTER COMPOUND AND PREPARATION METHOD AND USE THEREOF” (priority 2019, published 2025).

Legend:
[1] = system: pathogenic bacteria causing black rot in Chinese cabbages; experiment: In vitro bactericidal activity, black rot in Chinese cabbages; format: cell-based, xanthomonas; details: Xanthomonas, read-out: inhibitory rate; for inhibition at 1 ppm: dosage 1 ppm; for inhibition at 5 ppm: dosage 5 ppm
Method: (§1) Under aseptic conditions, equal amounts of NB culture medium were added to test tubes, and fixed amounts of the sample solutions were pipetted into the above test tubes in an ascending order of concentrations, respectively. The mixtures were well mixed and added with equal amounts of a bacterial suspension in log phase.
(§2) Each step of the procedure was repeated 4 times. After mixing, the mixture samples were incubated in the dark in a shaking incubator at 25° C. The OD values were measured when the bacteria were in log phase.

[2] = system: pathogenic bacteria causing bacterial blight in rice; experiment: whole plant or invertebrate; format: cell-based, xanthomonas; details: read-out: inhibitory rate
cucumber seedlings = experiment: Safety for plant growth after application; format: in vivo; details: dosage 200 ppm
Source text: Taking indoor potted cucumber seedlings as an example, the influence of the compound disclosed herein on growth rate of plant height, chlorophyll content, leaf area, etc. of crops was mainly evaluated.
The results of safety and health-care effect of the compounds of the present disclosure on cucumber seedlings are shown in the following table 1: […]

[3] = system: pathogenic bacteria causing fire blight in pears; experiment: In vitro bactericidal activity, fire blight in pears; format: cell-based, erwinia; details: Erwinia, read-out: inhibitory rate; for inhibition at 1 ppm: dosage 1 ppm; for inhibition at 5 ppm: dosage 5 ppm
Method: as §1, §2

[4] = system: pathogenic bacteria causing bacterial angular leaf spot in cucumbers; experiment: In vitro bactericidal activity, bacterial angular leaf spot in cucumbers; format: cell-based, pseudomonas; details: read-out: inhibitory rate; for inhibition at 1 ppm: dosage 1 ppm; for inhibition at 5 ppm: dosage 5 ppm
Method: as §1, §2

black shank in potatoes = experiment: Living crops in vivo protective activity, potatoes (root irrigation); details: Solanum tuberosum, read-out: efficacy against black shank in potatoes; for pest or weed control at 5 ppm: dosage 5 ppm; for pest or weed control at 10 ppm: dosage 10 ppm
Method: Root irrigation was carried out on the potatoes for tests according to the designed concentration of the agents. The dosage for each plant was 200 mL and was kept consistent (also for the control). The black shank bacteria were inoculated on the second day after the application. The results were investigated according to the disease condition.

[5] = system: pathogenic bacteria causing fruit blotch in watermelons; experiment: In vitro bactericidal activity, fruit blotch in watermelons; format: cell-based, acidovorax; details: read-out: inhibitory rate; for inhibition at 1 ppm: dosage 1 ppm; for inhibition at 5 ppm: dosage 5 ppm
Method: as §1, §2

[6] = system: pathogenic bacteria causing bacterial wilt in tobacco; experiment: whole plant or invertebrate; format: cell-based, ralstonia; details: read-out: inhibitory rate
[7] = system: pathogenic bacteria causing stem rot in sweet potatoes; experiment: In vitro bactericidal activity, stem rot in sweet potatoes; format: cell-based, dikia; details: read-out: inhibitory rate; for inhibition at 1 ppm: dosage 1 ppm; for inhibition at 5 ppm: dosage 5 ppm
Method: as §1, §2

[8] = system: pathogenic bacteria causing bacterial wilt in cassava; experiment: organism not typed; format: cell-based; details: read-out: inhibitory rate
bacterial blight in rice = experiment: whole plant or invertebrate; details: Oryza sativa, read-out: efficacy against bacterial blight in rice
[9] = system: pathogenic bacteria causing black shank in potatoes; experiment: In vitro bactericidal activity, black shank in potatoes; format: cell-based; details: read-out: inhibitory rate; for inhibition at 1 ppm: dosage 1 ppm; for inhibition at 5 ppm: dosage 5 ppm
Method: as §1, §2

[10] = system: bacterial wilt in tobacco; experiment: whole plant or invertebrate; details: Nicotiana tabacum, read-out: efficacy against bacterial wilt in tobacco
[11] = system: stem rot in sweet potatoes; experiment: whole plant or invertebrate; details: read-out: efficacy against stem rot in sweet potatoes
[12] = system: soft rot in Chinese cabbages; experiment: whole plant or invertebrate; details: 48 h, read-out: efficacy against soft rot in Chinese cabbages
[13] = system: fruit blotch in watermelons; experiment: whole plant or invertebrate; details: read-out: efficacy against fruit blotch in watermelons

SMILES	inhibition at 1 ppm [1] [%]	inhibition at 5 ppm [1] [%]	inhibition at 1 ppm [2] [%]	inhibition at 5 ppm [2] [%]	safety for plant growth (discoloration, necrosis, wilt, malformation) (cucumber seedlings)	inhibition at 1 ppm [3] [%]	inhibition at 5 ppm [3] [%]	inhibition at 1 ppm [4] [%]	inhibition at 5 ppm [4] [%]	pest or weed control at 5 ppm (black shank in potatoes) [%]	pest or weed control at 10 ppm (black shank in potatoes) [%]	inhibition at 1 ppm [5] [%]	inhibition at 5 ppm [5] [%]	inhibition at 1 ppm [6] [%]	inhibition at 5 ppm [6] [%]	inhibition at 1 ppm [7] [%]	inhibition at 5 ppm [7] [%]	inhibition at 1 ppm [8] [%]	inhibition at 5 ppm [8] [%]	pest or weed control at 5 ppm (bacterial blight in rice) [%]	other results
O=C(OCCO)c1cn(C2CC2)c2cc(F)ccc2c1=O [Compound 194]	≥ 80	≥ 90	≥ 80	≥ 90	safe for plant growth	≥ 80	≥ 90	≥ 80	≥ 90	≥ 80	≥ 90	≥ 80	≥ 90	≥ 80	≥ 90	≥ 80	≥ 90	≥ 80	≥ 90	≥ 80	pest or weed control at 10 ppm (bacterial blight in rice): ≥ 90%; inhibition at 1 ppm [9]: ≥ 80%; inhibition at 5 ppm [9]: ≥ 90%; pest or weed control at 5 ppm [10]: ≥ 90%; pest or weed control at 10 ppm [10]: ≥ 90%; pest or weed control at 5 ppm [11]: ≥ 90%; pest or weed control at 10 ppm [11]: ≥ 90%; pest or weed control at 5 ppm [12]: ≥ 80%; pest or weed control at 10 ppm [12]: ≥ 90%; pest or weed control at 5 ppm [13]: ≥ 90%; pest or weed control at 10 ppm [13]: ≥ 90%
CCOc1cc2c(cc1F)c(=O)c(C(=O)OCCOC(C)C)cn2C1CC1 [Compound 300]	≥ 90	≥ 90	≥ 90	≥ 90	safe for plant growth	≥ 90	≥ 90	≥ 90	≥ 90	≥ 90	≥ 90	≥ 90	≥ 90	≥ 90	≥ 90	≥ 90	≥ 90	≥ 90	≥ 90	≥ 90	pest or weed control at 10 ppm (bacterial blight in rice): ≥ 90%; inhibition at 1 ppm [9]: ≥ 90%; inhibition at 5 ppm [9]: ≥ 90%; pest or weed control at 5 ppm [10]: ≥ 90%; pest or weed control at 10 ppm [10]: ≥ 90%; pest or weed control at 5 ppm [11]: ≥ 90%; pest or weed control at 10 ppm [11]: ≥ 90%; pest or weed control at 5 ppm [12]: ≥ 90%; pest or weed control at 10 ppm [12]: ≥ 90%; pest or weed control at 5 ppm [13]: ≥ 90%; pest or weed control at 10 ppm [13]: ≥ 90%
CCOCOC(=O)c1cn(C2CC2)c2cc(OCC)c(F)cc2c1=O [Compound 312]	≥ 90	≥ 90	≥ 80	≥ 90	safe for plant growth	≥ 90	≥ 90	≥ 90	≥ 90	≥ 90	≥ 90	≥ 90	≥ 90	≥ 90	≥ 90	≥ 90	≥ 90	≥ 90	≥ 90	≥ 80	pest or weed control at 10 ppm (bacterial blight in rice): ≥ 90%; inhibition at 1 ppm [9]: ≥ 90%; inhibition at 5 ppm [9]: ≥ 90%; pest or weed control at 5 ppm [10]: ≥ 90%; pest or weed control at 10 ppm [10]: ≥ 90%; pest or weed control at 5 ppm [11]: ≥ 90%; pest or weed control at 10 ppm [11]: ≥ 90%; pest or weed control at 5 ppm [12]: ≥ 90%; pest or weed control at 10 ppm [12]: ≥ 90%; pest or weed control at 5 ppm [13]: ≥ 90%; pest or weed control at 10 ppm [13]: ≥ 90%
COCCOC(=O)c1cn(C2CC2)c2cc(OC)ccc2c1=O [Compound 353]	≥ 80	≥ 90	≥ 80	≥ 90	safe for plant growth	≥ 80	≥ 90	≥ 80	≥ 90	≥ 80	≥ 90	≥ 80	≥ 90	≥ 80	≥ 90	≥ 80	≥ 90	≥ 80	≥ 90	≥ 80	pest or weed control at 10 ppm (bacterial blight in rice): ≥ 90%; inhibition at 1 ppm [9]: ≥ 80%; inhibition at 5 ppm [9]: ≥ 90%; pest or weed control at 5 ppm [10]: ≥ 90%; pest or weed control at 10 ppm [10]: ≥ 90%; pest or weed control at 5 ppm [11]: ≥ 90%; pest or weed control at 10 ppm [11]: ≥ 90%; pest or weed control at 5 ppm [12]: ≥ 80%; pest or weed control at 10 ppm [12]: ≥ 90%; pest or weed control at 5 ppm [13]: ≥ 90%; pest or weed control at 10 ppm [13]: ≥ 90%
O=C(OCCO)c1cn(C2CC2)c2cc(OCC(F)(F)F)ccc2c1=O [Compound 360]	≥ 80	≥ 90	≥ 80	≥ 90	safe for plant growth	≥ 80	≥ 90	≥ 80	≥ 90	≥ 80	≥ 90	≥ 80	≥ 90	≥ 80	≥ 90	≥ 80	≥ 90	≥ 80	≥ 90	≥ 80	pest or weed control at 10 ppm (bacterial blight in rice): ≥ 90%; inhibition at 1 ppm [9]: ≥ 80%; inhibition at 5 ppm [9]: ≥ 90%; pest or weed control at 5 ppm [10]: ≥ 90%; pest or weed control at 10 ppm [10]: ≥ 90%; pest or weed control at 5 ppm [11]: ≥ 90%; pest or weed control at 10 ppm [11]: ≥ 90%; pest or weed control at 5 ppm [12]: ≥ 80%; pest or weed control at 10 ppm [12]: ≥ 90%; pest or weed control at 5 ppm [13]: ≥ 90%; pest or weed control at 10 ppm [13]: ≥ 90%
CSc1cc2c(cc1F)c(=O)c(C(=O)OCCO)cn2C1CC1 [Compound 371]	≥ 90	≥ 90	≥ 90	≥ 90	safe for plant growth	≥ 90	≥ 90	≥ 90	≥ 90	≥ 90	≥ 90	≥ 90	≥ 90	≥ 90	≥ 90	≥ 90	≥ 90	≥ 90	≥ 90	≥ 90	pest or weed control at 10 ppm (bacterial blight in rice): ≥ 90%; inhibition at 1 ppm [9]: ≥ 90%; inhibition at 5 ppm [9]: ≥ 90%; pest or weed control at 5 ppm [10]: ≥ 90%; pest or weed control at 10 ppm [10]: ≥ 90%; pest or weed control at 5 ppm [11]: ≥ 90%; pest or weed control at 10 ppm [11]: ≥ 90%; pest or weed control at 5 ppm [12]: ≥ 90%; pest or weed control at 10 ppm [12]: ≥ 90%; pest or weed control at 5 ppm [13]: ≥ 90%; pest or weed control at 10 ppm [13]: ≥ 90%
